Key:
[1] = target: T1, bovine beta-2 adrenoceptor (Bos taurus, UniProt Q28044); test: cAMP assay in CHO cells transfected with the bovine beta-2 adrenoceptor (DiscoveRx Hit Hunter cAMP II); type: cell-based; conditions: CHO cells transfected with bovine beta-2 adrenoceptor, 30 minutes incubation with compound
T1 construct: expressed in transfected cells; host or cells: CHO cells
Method: (§1) CHO cells transfected with the bovine or porcine beta-2 adrenceptors were maintained in culture in DMEM/HAMS F12+10% FBS+2 mM glutamine+500 μg/ml geneticin (for the porcine receptor the medium was supplement with 1.5 mM HEPES) at 37° C. with a 5% CO2 atmosphere.
(§2) Cells were plated into 96 well viewplates in medium and incubated overnight at 37° C. with a 5% CO2 atmosphere. The cells were pre-incubated with 0.5 mM IBMX in PBS for 30 minutes prior to incubation with increasing concentrations of experimental compound (5×10^−12 to 10^−5M) for 30 minutes at 37° C. with a 5% CO2 atmosphere. At the end of the incubation time the compound was removed and the cells assayed for cAMP using the DiscoveRx Hit Hunter cAMP II™ assay kit.
(§3) Duplicate samples were run for each experimental compound and the data generated was analysed using EC50 analysis software in Graphpad Prism.

[2] = target: T2, porcine beta-2 adrenoceptor (Sus scrofa, UniProt Q28997); test: cAMP assay in CHO cells transfected with the porcine beta-2 adrenoceptor (DiscoveRx Hit Hunter cAMP II); type: cell-based; conditions: CHO cells transfected with porcine beta-2 adrenoceptor, 30 minutes incubation with compound
T2 construct: expressed in transfected cells; host or cells: CHO cells
T2 sequence (Q28997 whole entry): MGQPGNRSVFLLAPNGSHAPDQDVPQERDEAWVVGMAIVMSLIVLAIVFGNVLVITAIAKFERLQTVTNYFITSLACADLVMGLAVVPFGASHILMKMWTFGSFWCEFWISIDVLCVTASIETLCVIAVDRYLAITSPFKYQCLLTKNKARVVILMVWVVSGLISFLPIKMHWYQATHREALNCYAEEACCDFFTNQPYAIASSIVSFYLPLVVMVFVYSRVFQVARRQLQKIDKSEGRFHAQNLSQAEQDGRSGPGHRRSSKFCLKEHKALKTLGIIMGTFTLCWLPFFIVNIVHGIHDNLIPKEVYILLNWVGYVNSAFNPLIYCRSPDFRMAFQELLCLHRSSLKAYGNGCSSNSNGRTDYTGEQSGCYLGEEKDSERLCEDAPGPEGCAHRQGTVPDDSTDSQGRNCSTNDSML
Method: as §1, §2, §3

T1 sequence (Q28044 whole entry): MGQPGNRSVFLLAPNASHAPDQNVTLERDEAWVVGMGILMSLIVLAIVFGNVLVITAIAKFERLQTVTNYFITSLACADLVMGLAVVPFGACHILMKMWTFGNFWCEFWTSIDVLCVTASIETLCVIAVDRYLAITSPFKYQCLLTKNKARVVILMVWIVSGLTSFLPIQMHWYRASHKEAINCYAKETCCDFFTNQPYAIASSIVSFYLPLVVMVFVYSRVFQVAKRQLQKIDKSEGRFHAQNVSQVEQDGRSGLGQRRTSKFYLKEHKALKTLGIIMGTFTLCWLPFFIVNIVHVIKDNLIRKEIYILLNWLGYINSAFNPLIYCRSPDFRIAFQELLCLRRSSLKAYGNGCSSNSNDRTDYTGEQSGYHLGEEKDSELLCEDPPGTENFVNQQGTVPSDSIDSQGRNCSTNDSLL

| EC50 [1] [nM] | EC50 [2] [nM] | Compound |
| --- | --- | --- |
| 153 | 121 | Cc1nc(C)c(CCC(C)N[C@@H]2CCn3c(=O)[nH]c4cccc(c43)[C@H]2O)s1 (single isomer, unassigned) [Example 23a, 6-{[3-(2,4-Dimethyl-1,3-thiazol-5-yl)-1-methylpropyl]amino}-7-hydroxy-4,5,6,7-tetrahydroimidazo[4,5,1-jk][1]benzazepin-2(1H)-one] |
| 12 | 4.9 | Cc1nc(C)c(CCC(C)N[C@@H]2CCn3c(=O)[nH]c4cccc(c43)[C@H]2O)s1 (single isomer, unassigned) [Example 23b, 6-{[3-(2,4-Dimethyl-1,3-thiazol-5-yl)-1-methylpropyl]amino}-7-hydroxy-4,5,6,7-tetrahydroimidazo[4,5,1-jk][1]benzazepin-2(1H)-one] |
| 6.6 | > 10000 | Cc1ncc(CCC(C)N[C@@H]2CCn3c(=O)[nH]c4cccc(c43)[C@H]2O)s1 (single isomer, unassigned) [Example 28b, 7-Hydroxy-6-{[1-methyl-3-(2-methyll-1,3-thiazol-5-yl)propyl]amino}-4,5,6,7-tetrahydroimidazo[4,5,1-jk][1]benzazepin-2(1H)-one] |
| 58 | 43 | CC(CCc1c[nH]c2ccncc12)N[C@@H]1CCn2c(=O)[nH]c3cccc(c32)[C@H]1O (single isomer, unassigned) [Example 31b, 7-Hydroxy-6-{[1-methyl-3-(1H-pyrrolo[3,2-c]pyridin-3-yl)propyl]amino}-4,5,6,7-tetrahydroimidazo[4,5,1-jk][1]benzazepin-2(1H)-one] |
| 96 | 1090 | CC(CCc1c[nH]c2cnccc12)N[C@@H]1CCn2c(=O)[nH]c3cccc(c32)[C@H]1O (single isomer, unassigned) [Example 32b, 7-Hydroxy-6-{[1-methyl-3-(1H-pyrrolo[2,3-c]pyridin-3-yl)propyl]amino}-4,5,6,7-tetrahydroimidazo[4,5,1-jk][1]benzazeiin-2(1H)-one] |
| 1.4 | 2.1 | Cc1ncsc1CCC(C)N[C@@H]1CCn2c(=O)[nH]c3cccc(c32)[C@H]1O (single isomer, unassigned) [Example 34b, 7-Hydroxy-6-{[1-methyl-3-(4-methyl-1,3-thiazol-5-yl)propyl]amino}-4,5,6,7-tetrahydroimidazo[4,5,1-jk][1]benzazepin-2(1H)-one] |
| 44 | 79 | CC(CCc1cccc2cc[nH]c12)N[C@@H]1CCn2c(=O)[nH]c3cccc(c32)[C@H]1O (single isomer, unassigned) [Example 38a, 7-Hydroxy-6-{[3-(1H-indol-7-yl)-1-methylpropyl]amino}-4,5,6,7-tetrahydroimidazo[4,5,1-jk][1]benzazepin-2(1H)-one] |
| 0.8 | 0.9 | CC(CCc1cccc2cc[nH]c12)N[C@@H]1CCn2c(=O)[nH]c3cccc(c32)[C@H]1O (single isomer, unassigned) [Example 38b, 7-Hydroxy-6-{[3-(1H-indol-7-yl)-1-methylpropyl]amino}-4,5,6,7-tetrahydroimidazo[4,5,1-jk][1]benzazepin-2(1H)-one] |
| 137 | 174 | CC(CCc1cccc2cc[nH]c12)N[C@@H]1CCn2c(=O)[nH]c3cccc(c32)[C@H]1O (single isomer, unassigned) [Example 38c, 7-Hydroxy-6-{[3-(1H-indol-7-yl)-1-methylpropyl]amino}-4,5,6,7-tetrahydroimidazo[4,5,1-jk][1]benzazepin-2(1H)-one] |

The next lines start with the compound.

| Compound | EC50 [1] [nM] | EC50 [2] [nM] |
| --- | --- | --- |
| CC(CCc1c[nH]c2ccc(Cl)cc12)N[C@@H]1CCn2c(=O)[nH]c3cccc(c32)[C@H]1O (single isomer, unassigned) [Example 21a, 6-{[3-(5-Chloro-1H-indol-3-yl)-1-methylpropyl]amino}-7-hydroxy-4,5,6,7-tetrahydroimidazo[4,5,1-jk][1]benzazepin-2(1H)-one] | 1830 | > 10000 |
| CC(CCc1c[nH]c2ccc(Cl)cc12)N[C@@H]1CCn2c(=O)[nH]c3cccc(c32)[C@H]1O (single isomer, unassigned) [Example 21b, 6-{[3-(5-Chloro-1H-indol-3-yl)-1-methylpropyl]amino}-7-hydroxy-4,5,6,7-tetrahydroimidazo[4,5,1-jk][1]benzazepin-2(1H)-one] | 15 | 11 |
| CC(CCc1ccc2[nH]ccc2c1)N[C@@H]1CCn2c(=O)[nH]c3cccc(c32)[C@H]1O (single isomer, unassigned) [Example 37] | 16 | 28 |
| CC(CCc1cccnc1N)N[C@@H]1CCn2c(=O)[nH]c3cccc(c32)[C@H]1O (single isomer, unassigned) [Example 44] | 1.3 | 1.8 |
| CC(CCc1cncc(N)c1)N[C@@H]1CCn2c(=O)[nH]c3cccc(c32)[C@H]1O (single isomer, unassigned) [Example 45] | 1.4 | 1.1 |
| CC(CCc1ccc(N)nc1)N[C@@H]1CCn2c(=O)[nH]c3cccc(c32)[C@H]1O (single isomer, unassigned) [Example 46] | 3 | 2.8 |
| CC(CCc1cnsc1)N[C@@H]1CCn2c(=O)[nH]c3cccc(c32)[C@H]1O (single isomer, unassigned) [Example 47] | 0.6 | 0.9 |
| Cc1nn(C)c(C)c1CCC(C)N[C@@H]1CCn2c(=O)[nH]c3cccc(c32)[C@H]1O (single isomer, unassigned) [Example 48] | 3.4 | 3.1 |
| CC(CCc1cncs1)N[C@@H]1CCn2c(=O)[nH]c3cccc(c32)[C@H]1O (single isomer, unassigned) [Example 49] | 4.7 | 6.4 |
| CC(CCn1cnc2ccccc21)N[C@@H]1CCn2c(=O)[nH]c3cccc(c32)[C@H]1O (single isomer, unassigned) [Example 51] | 0.6 | 0.9 |
| CC(CCc1cc(Br)no1)N[C@@H]1CCn2c(=O)[nH]c3cccc(c32)[C@H]1O (single isomer, unassigned) [Example 52] | 1.2 | 1.3 |
| Cc1[nH]c2ccc(F)cc2c1CCC(C)N[C@@H]1CCn2c(=O)[nH]c3cccc(c32)[C@H]1O (single isomer, unassigned) [Example 54] | 2.7 | 3.1 |
| CC(CCc1c[nH]c2cccnc12)N[C@@H]1CCn2c(=O)[nH]c3cccc(c32)[C@H]1O (single isomer, unassigned) [Example 55] | 4.4 | 9.9 |
| CC(CCc1cnn(C)c1)N[C@@H]1CCn2c(=O)[nH]c3cccc(c32)[C@H]1O (single isomer, unassigned) [Example 56] | 5.2 | 2.7 |
| CC(CCc1c[nH]c2cnccc12)N[C@@H]1CCn2c(=O)[nH]c3cccc(c32)[C@H]1O (single isomer, unassigned) [Example 57] | 5.7 | 13 |
| CC(CCc1n[nH]c2ccccc12)N[C@@H]1CCn2c(=O)[nH]c3cccc(c32)[C@H]1O (single isomer, unassigned) [Example 58] | 8.3 | 33 |
| Cc1nn(C)cc1CCC(C)N[C@@H]1CCn2c(=O)[nH]c3cccc(c32)[C@H]1O (single isomer, unassigned) [Example 59] | 20 | 17 |
| CC(CCc1c[nH]c2cc(C#N)ccc12)N[C@@H]1CCn2c(=O)[nH]c3cccc(c32)[C@H]1O (single isomer, unassigned) [Example 60] | 23 | 13 |
| CC(CCn1cncn1)N[C@@H]1CCn2c(=O)[nH]c3cccc(c32)[C@H]1O (single isomer, unassigned) [Example 61] | 28 | 18 |
| CC(CCc1c[nH]c2ccncc12)N[C@@H]1CCn2c(=O)[nH]c3cccc(c32)[C@H]1O (single isomer, unassigned) [Example 62] | 35 | 28 |
| Cc1cc(CCC(C)N[C@@H]2CCn3c(=O)[nH]c4cccc(c43)[C@H]2O)ccn1 (single isomer, unassigned) [Example 63] | 81 | 25 |
| Cc1cc(C)n(CCC(C)N[C@@H]2CCn3c(=O)[nH]c4cccc(c43)[C@H]2O)n1 (single isomer, unassigned) [Example 64] | 169 | 188 |
| C[C@H](CCc1c[nH]c2ccccc12)N[C@@H]1CCn2c(=O)[nH]c3cccc(c32)[C@H]1O [Example 4e, 7-Hydroxy-6-{[3-(1H-indol-3-yl)-1-methylpropyl]amino}-4,5,6,7-tetrahydroimidazo[4,5,1-jk][1]benzazepin-2(1H)-one] | 1.1 | 3.7 |
| C[C@H](CCc1c[nH]c2ccccc12)N[C@@H]1CCn2c(=O)[nH]c3cccc(c32)[C@H]1O [Example 4f, 7-Hydroxy-6-{[3-(1H-indol-3-yl)-1-methylpropyl]amino}-4,5,6,7-tetrahydroimidazo[4,5,1-jk][1]benzazepin-2(1H)-one] | 1.7 | 2.5 |
| CNc1nc(CC(C)NC2CCn3c(=O)[nH]c4cccc(c43)C2O)ns1 (centres unmarked) [Example 10, 7-Hydroxy-6-({1-methyl-2-[5-(methylamino)-1,2,4-thiadiazol-3-yl]ethyl}amino)-4,5,6,7-tetrahydroimidazo[4,5,1-jk][1]benzazepin-2(1H)-one] | 497 | 399 |

From patent US20080267942A1, “BENZAZEPIN-2(1H)-ONE DERIVATIVES” (Pfizer Limited, priority 2006, published 2008)
